{
  "source": "patent US10107817B2",
  "about": "“Oligopeptide specific to ovarian cancer, polynucleotide for encoding oligopeptide, test kit for detecting ovarian cancer and method for detecting ovarian cancer” (NATIONAL TSING HUA UNIVERSITY, priority 2016, dated 2018)",
  "key": {"[1]": {"system": "ovarian clear cell carcinoma tissue section", "assay": "Binding of the FAM-labelled oligopeptide to ovarian cancer tissue sections, fluorescence microscopy", "details": "60 rpm, 60 minutes, room temperature, FIG. 2", "from_the_text": "(§1) In subsequent examples, the oligopeptide of the present disclosure is used to detect whether the sample has the oligopeptide-cancer cell complex. The oligopeptide consisted of the amino acid sequence of SEQ ID NO: 1 is chemically synthesized and modified a green fluorescence (FAM) at N-terminus in subsequent examples.\n(§2) The sample uses in this example is the ovarian cancer tissue including an ovarian serous tumor tissue section, an ovarian mucinous tumor tissue section and an ovarian clear cell carcinoma tissue section. Besides, a normal ovarian tissue section is used as a control. The oligopeptide modified with the green fluorescence is respectively mixed with different groups of the sample at 60 rpm for 60 minutes at room temperature. The samples are washed several times with PBS containing 1% BSA. Then the sample is observed under a fluorescence microscopy, wherein the green fluorescent signal represents that the oligopeptide-cancer cell complex is presented in the sample."}, "[2]": {"system": "ovarian mucinous tumor tissue section", "assay": "Binding of the FAM-labelled oligopeptide to ovarian cancer tissue sections, fluorescence microscopy", "details": "60 rpm, 60 minutes, room temperature, FIG. 2", "from_the_text": "as §1, §2"}, "[3]": {"system": "ovarian serous tumor tissue section", "assay": "Binding of the FAM-labelled oligopeptide to ovarian cancer tissue sections, fluorescence microscopy", "details": "60 rpm, 60 minutes, room temperature, FIG. 2", "from_the_text": "as §1, §2"}, "[4]": {"system": "normal ovarian tissue section", "assay": "Binding of the FAM-labelled oligopeptide to control tissue section, fluorescence microscopy", "details": "60 rpm, 60 minutes, room temperature, FIG. 2", "from_the_text": "as §1, §2"}, "OVCAR3 cell": {"system": "OVCAR3 cell", "assay": "Binding of the FAM-labelled oligopeptide to ovarian cancer cells, fluorescence microscopy", "design": "species or system human", "details": "12-well plate, 1×10^5 cells/well, 60 rpm, 60 minutes, room temperature, FIG. 3", "from_the_text": "as §1\n(§3) The sample uses in this example is the ovarian cancer cell, wherein the ovarian cancer cell is OVCAR3 cell (a human serous epithelial ovarian cancer cell line). Besides, a normal cervical epithelial cell is used as the control. The OVCAR3 cell and the normal cervical epithelial cell are cultured and stored in Department of Obstetrics and Gynecology of National Cheng Kung University Hospital. The OVCAR3 cell and the normal cervical epithelial cell are respectively seeded in a 12-well plate with 1×10^5 cells/well and then maintained at 37° C. in a humidified atmosphere of 5% CO2 until the cells are adhered in the next day. The oligopeptide modified with the green fluorescence is respectively mixed with different groups of the sample at 60 rpm for 60 minutes at room temperature. The sample is washed several times with the PBS containing 1% BSA. Then the sample is observed under a fluorescence microscopy, wherein the green fluorescent signal represents that the oligopeptide-cancer cell complex is presented in the sample."}, "[5]": {"system": "normal cervical epithelial cell", "assay": "Binding of the FAM-labelled oligopeptide to control cells, fluorescence microscopy", "details": "12-well plate, 1×10^5 cells/well, 60 rpm, 60 minutes, room temperature, FIG. 3", "from_the_text": "as §1, §3"}},
  "data": [
    {"substance": "oligopeptide of the present disclosure: oligopeptide consisted of the amino acid sequence of SEQ ID NO: 1, chemically synthesized, specific to ovarian cancer (KRLTPLSPDHYD)", "values": [
      {"measurement": "green fluorescent signal (oligopeptide-cancer cell complex)", "setting": "[1]", "result": "green fluorescent signal can be detected"},
      {"measurement": "green fluorescent signal (oligopeptide-cancer cell complex)", "setting": "[2]", "result": "green fluorescent signal can be detected"},
      {"measurement": "green fluorescent signal (oligopeptide-cancer cell complex)", "setting": "[3]", "result": "green fluorescent signal can be detected"},
      {"measurement": "green fluorescent signal (oligopeptide-cancer cell complex)", "setting": "[4]", "result": "no significant green fluorescent signal detected"},
      {"measurement": "FAM signal (oligopeptide-cancer cell complex)", "setting": "OVCAR3 cell", "result": "FAM signal can be detected"},
      {"measurement": "FAM signal (oligopeptide-cancer cell complex)", "setting": "[5]", "result": "no significant FAM signal detected"}
    ]}
  ]
}
